The values below come from patent US20260374766A1, “METHODS FOR TREATING CANCER” (Antares Therapeutics, Inc., priority 2022, published 2026).

Each structure is given as a SMILES string. Where two headings read alike, the source gives them in different places.

One experiment relates to H1299 p53 Y220C. The experiment in a line: Cell Proliferation Assay (CellTiter-Glo, CTG), H1299 p53 Y220C (NClH1299-inducible p53 Y220C). Type of experiment: cell-based. Conditions: Homo sapiens, NCI-H1299, 120 h, 5 days. As to the method:
(§1) Inducible p53 Y220C and R273H constructs (Tet-One inducible expression system; Takara) were stably expressed in NClH1299 cells by lentiviral transduction. NUGC3, A549, BxPC3, T3M4, HuH7, HCC2935, MFE296, NClH1299, NClH1299-inducible p53 Y220C, and NClH1299-inducible p53 R273H cell lines were used for cell proliferation assay. 250-500 cells were seeded in each well of 384 plate and then compounds were dispensed into each well using Echo or Tecan. After 5 days of incubation, equal volume of CellTiter-Glo reagent (G7570; Promega) was added into each well and the plate was incubated at room temperature for 10 minutes with shaking. The luminescent signal was measured by PheraStar microplate reader and IC50 was calculated.
In general terms: Cellular ATP, detected with luciferase, serves as a proxy for viable cell number.

The test system of a further experiment is NUGC3 p53 Y220C. The experiment is described as follows: Cell Proliferation Assay (CellTiter-Glo, CTG), NUGC3 p53 Y220C. It counts as cell-based. The note with it: Homo sapiens, NUGC-3, 120 h, 5 days. As to the method:
as §1

Another experiment concerns the target p53 Y220C (Homo sapiens, UniProt P04637, Y220C). The experiment is described as follows: Luciferase Reporter Assay (Luc), p53 response element, NClH1299 cells with inducible p53 Y220C. It counts as cell-based. The note with it: 6 hour; for AC50: read-out: Luc P53 Y220C AC50. As to the method: Luciferase Reporter Assay Protocol
The cells were then used for p53 reporter assay. 5,000 cells were seeded in each well of 384 plate and cultured in 0.5 ug/mL doxycycline (D3072; Sigma) containing medium for 24 hours before compound treatment. After 6 hour of compound treatment, equal volume of One-Glo reagent (E6110; Promega) was added to each well and the plate was incubated for 5 minutes with shaking at room temperature. The luciferase activity was immediately measured with PheraStar microplate reader.
For orientation: In a reporter assay the amount or activity of a reporter protein is the signal.

Another experiment deals with H1299 p53 R273H. The experiment is described as follows: Cell Proliferation Assay (CellTiter-Glo, CTG), H1299 p53 R273H (NClH1299-inducible p53 R273H). It counts as cell-based. Conditions: Homo sapiens, NCI-H1299, 120 h, 5 days. The procedure:
as §1

Experiment [1] deals with T1, p53 Y220C mutant protein (amino acid residues 94-293) (Homo sapiens, UniProt P04637, Y220C).
T1 construct: p53 Y220C mutant protein (amino acid residues 94-293)
The experiment in a line: Surface Plasmon Resonance (SPR) assay, Kd_kinetic. It counts as binding. Conditions: SPR, p53 Y220C, read-out: SPR P53 Y220C KD kinetic. The procedure:
Surface Plasmon Resonance (SPR) Assay Protocol
SPR experiments were performed on a Biacore 8K instrument. […] The running buffer contained 50 mM Tris, pH 7.5, 100 mM NaCl, 1 mM DTT, 0.01% Brij35, 0.05% Tween-20 and 1% DMSO. The assay temperature was maintained at 16 or 20 °C and data were fit into the 1:1 binding model using the Biacore Insight Evaluation software.

Where [2] appears, read: NClH1299-inducible p53 Y220C cells, CellTiter-Glo.
Setting [3] is: Emax, luciferase reporter, NClH1299 inducible p53 Y220C.
[4] abbreviates: NClH1299-inducible p53 R273H cells, CellTiter-Glo.
The mark [5] stands for this setting: NClH1299-inducible p53 Y220C cells.
Where [6] appears, read: AC50, NClH1299 cells with inducible p53 Y220C.
[7] abbreviates: Emax, NClH1299 cells with inducible p53 Y220C, 10 uM tool compound as positive control.
Where [8] appears, read: NClH1299-inducible p53 R273H cells.
Setting [9] is: luciferase reporter, NClH1299 inducible p53 Y220C, 10 uM tool compound as positive control.
Where [10] appears, read: luciferase reporter, NClH1299 inducible p53 Y220C.

T1 sequence (P04637 94-293, stated change not applied): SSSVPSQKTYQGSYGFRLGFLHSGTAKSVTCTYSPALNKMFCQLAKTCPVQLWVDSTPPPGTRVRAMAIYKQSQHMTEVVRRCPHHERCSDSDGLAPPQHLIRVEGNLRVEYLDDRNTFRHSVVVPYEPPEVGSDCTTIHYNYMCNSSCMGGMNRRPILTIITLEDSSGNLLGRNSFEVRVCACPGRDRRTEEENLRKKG

In the case of `CNC(=O)c1ccc(NCC#Cc2nc3c(N[C@@H]4C[C@H]5COC[C@H](N5)[C@@H]4F)cccn3c2SC(F)(F)F)c(OC)c1` (relative stereo) [Example 251, rel-4-{[3-(8-{[(1R,5R,6S,7S)-6-fluoro-3-oxa-9-azabicyclo [3.3.1]nonan-7-yl]amino}-3-[(trifluoromethyl)sulfanyl]imidazo[1,2-a]pyridin-2-yl)prop-2-yn-1-yl]amino}-3-methoxy-N-methylbenzamide], the IC50 (usually the concentration at which inhibition is half-maximal) was 1500 to 3000 nM in the experiment on H1299 p53 Y220C (setting [2]); 1500 to 3000 nM in the experiment with NUGC3 p53 Y220C (NUGC3 cells, CellTiter-Glo); at least 10000 nM with H1299 p53 R273H (setting [4]). The Emax (usually the greatest response seen or fitted, relative to the assay's reference) at p53 Y220C (setting [3]) lay in the range of 80 to 90%.

As to `CNC(=O)c1ccc(NCC#Cc2nc3c(NC4CCS(=O)(=O)C4)cccn3c2SC(F)(F)F)c(OC)c1` (single isomer, unassigned) [Example 322], the IC50 was 750 to 1500 nM in the experiment on H1299 p53 Y220C (setting [2]); 750 to 1500 nM in the experiment on NUGC3 p53 Y220C (NUGC3 cells, CellTiter-Glo); at least 10000 nM in the experiment on H1299 p53 R273H (setting [4]). Besides, at p53 Y220C (AC50, luciferase reporter, NClH1299 inducible p53 Y220C), the AC50 (commonly the concentration at which the activity in the assay is half-maximal) fell in the range of 750 to 1500 nM. Further, at p53 Y220C (setting [3]), the Emax is over 90%. Further, the Kd (in general, the free concentration of one partner at which half of the binding sites on the other are occupied at equilibrium, for simple one-to-one binding) in experiment [1] fell in the range of 10 to 100 nM.

As to `CNC(=O)c1ccc(OC)c(NCC#Cc2cc3c(N[C@@H]4CCN(CC(C)O)C[C@@H]4F)cccn3c2SC(F)(F)F)c1` (single isomer, unassigned) [Example 480, 3-{[3-(8-{[(3S,4R)-3-fluoro-1-[(2R*)-2-hydroxypropyl]piperidin-4-yl]amino}-3-[(trifluoromethyl)sulfanyl]indolizin-2-yl)prop-2-yn-1-yl]amino}-4-methoxy-N-methylbenzamide], the results for the half-inhibitory concentration (IC50) in the experiment with H1299 p53 Y220C (setting [5]), with NUGC3 p53 Y220C (NUGC3 cells) and with H1299 p53 R273H (setting [8]) were under 750 nM, under 750 nM and 8000 to 10000 nM, respectively. The AC50 at p53 Y220C (setting [6]) was under 750 nM. In addition, the Emax at p53 Y220C (setting [7]) is over 90%. In experiment [1], the Kd was under 10 nM.

As for `CNC(=O)c1cc(NCC#Cc2cc3c(N[C@H]4CCN(C)C[C@H]4F)cccn3c2SC(F)(F)F)c2nccn2c1` (stereo in doubt) [Example 503, 8-{[3-(8-{[(3R,4S)-3-fluoro-1-methylpiperidin-4-yl]amino}-3-[(trifluoromethyl)sulfanyl]indolizin-2-yl)prop-2-yn-1-yl]amino}-N-methylimidazo[1,2-a]pyridine-6-carboxamide], the IC50 was under 750 nM with H1299 p53 Y220C (setting [5]), under 750 nM in the experiment on NUGC3 p53 Y220C (NUGC3 cells) and 5000 to 8000 nM in the experiment on H1299 p53 R273H (setting [8]). Moreover, the AC50 at p53 Y220C (setting [6]) is under 750 nM. The molecule also returned an Emax on p53 Y220C (setting [7]) of over 90%. The Kd in experiment [1] was under 10 nM.

Consider `CNC(=O)c1cc(OC)c(NCC#Cc2nc3c(N[C@@H]4CCN(C)C[C@@H]4F)cccn3c2SC(F)(F)F)cn1` [Example 120], for which the IC50 is under 750 nM in the experiment with H1299 p53 Y220C (CellTiter-Glo, H1299 p53 Y220C); under 750 nM with NUGC3 p53 Y220C (CellTiter-Glo, NUGC3 p53 Y220C); at least 10000 nM in the experiment on H1299 p53 R273H (CellTiter-Glo, H1299 p53 R273H). Moreover, the Emax at p53 Y220C (setting [9]) was in the range of 80 to 90%. The AC50 at p53 Y220C (setting [10]) was under 750 nM. Further, the Kd in experiment [1] (kinetic KD) is under 10 nM.

Consider `COc1ccc(C(=O)N(C)C)cc1NCC#Cc1nc2c(N[C@@H]3CCN(C)C[C@@H]3F)cccn2c1SC(F)(F)F` [Example 143], for which the Emax at p53 Y220C (setting [9]) was over 90%. Moreover, the concentration at half-maximal activity (AC50) on p53 Y220C (setting [10]) is under 750 nM. In experiment [1] (kinetic KD), the Kd is under 10 nM. The molecule also came in with an IC50 in the experiment with H1299 p53 R273H (CellTiter-Glo, H1299 p53 R273H) of 5000 to 8000 nM.

With `CNC(=O)c1ccnc(NCC#Cc2nc3c(N[C@@H]4CCN(C)C[C@@H]4F)cccn3c2SC(F)(F)F)c1` [Example 150], the IC50 is over 3000 nM in the experiment with H1299 p53 Y220C (CellTiter-Glo, H1299 p53 Y220C); over 3000 nM in the experiment with NUGC3 p53 Y220C (CellTiter-Glo, NUGC3 p53 Y220C); at least 10000 nM in the experiment on H1299 p53 R273H (CellTiter-Glo, H1299 p53 R273H). Also, the Emax on p53 Y220C (setting [9]) is under 70%. Further, at p53 Y220C (setting [10]), the AC50 is over 3000 nM.

Turning to `CNC(=O)c1cnc(OC)c(NCC#Cc2nc3c(N[C@@H]4CCN(C)C[C@@H]4F)cccn3c2SC(F)(F)F)n1` [Example 157], at p53 Y220C (setting [9]), the maximal response (Emax) was in the range of 80 to 90%. In addition, the AC50 on p53 Y220C (setting [10]) was under 750 nM. Moreover, the Kd in experiment [1] (kinetic KD) is under 10 nM. The molecule further came in with an IC50 with H1299 p53 R273H (CellTiter-Glo, H1299 p53 R273H) of at least 10000 nM.

In the case of `CNC(=O)c1ccc(NCC#Cc2nc3c(N[C@H]4C[C@@H]5COC[C@@H](N5)[C@H]4F)cccn3c2SC(F)(F)F)c(OC)c1` [Example 279], the IC50 was over 3000 nM with H1299 p53 Y220C (setting [2]); over 3000 nM in the experiment on NUGC3 p53 Y220C (NUGC3 cells, CellTiter-Glo); at least 10000 nM with H1299 p53 R273H (setting [4]). Also, on p53 Y220C (setting [3]), the Emax was 70 to 80%.
